ChEMBL document CHEMBL1201862, “PubChem BioAssay data set” (2004)
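Following 48 hours of exposure in 96-well plates, responses at five concentrations were used to interpolate endpoints linearly. GI50: concentration for 50% inhibition of growth.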 The source made the active and inactive calls. Rule as the data show it: active = GI50 up to about 1.1 µM and inactive = higher.

Experiments:
Experiment in all cases: NCI tumour cell line growth inhibition, 48 h
[1] = test system: RPMI-8226
[2] = test system: HCT-116
[3] = test system: IGROV-1
[4] = test system: A498
[5] = test system: NCI-H226
[6] = test system: SK-MEL-5
[7] = test system: T47D
[8] = test system: ACHN
[9] = test system: OVCAR-8
[10] = test system: MCF7
[11] = test system: UACC-62
[12] = test system: MDA-N
[13] = test system: NCI-H522
[14] = test system: A549
[15] = test system: SNB-75
[16] = test system: NCI/ADR-RES
[17] = test system: SNB-19
[18] = test system: SF-539
[19] = test system: SW-620
[20] = test system: EKVX
[21] = test system: UO-31
[22] = test system: PC-3
[23] = test system: HOP-62
[24] = test system: UACC-257
[25] = test system: Malme-3M
[26] = test system: HCT-15
[27] = test system: Hs-578T
[28] = test system: MDA-MB-435
[29] = test system: MOLT-4
[30] = test system: U-251
[31] = test system: OVCAR-4
[32] = test system: CCRF-CEM
[33] = test system: MDA-MB-231
[34] = test system: OVCAR-3
[35] = test system: RXF 393
[36] = test system: HOP-92
[37] = test system: 786-0
[38] = test system: HCC 2998
[39] = test system: NCI-H23
[40] = test system: SR
[41] = test system: DU-145
[42] = test system: M14
[43] = test system: SN12C
[44] = test system: TK-10
[45] = test system: SK-MEL-2
[46] = test system: OVCAR-5
[47] = test system: LOX IMVI
[48] = test system: SK-MEL-28
[49] = test system: SF-295
[50] = test system: HL-60
[51] = test system: SF-268
[52] = test system: COLO 205
[53] = test system: KM12
[54] = test system: SK-OV-3
[55] = test system: NCI-H460
[56] = test system: K562
[57] = test system: CAKI-1
[58] = test system: HT-29
[59] = test system: BT-549

For CCOC(=O)C1Cc2c(cc3c4c(cccc24)N(C(C)=O)C3)N(C)C1 (configuration not stated), the GI50 [1] was > 100 µM (inactive), the GI50 [2] was 3.67 µM (inactive) and the GI50 [3] was 5.83 µM (inactive). For the same molecule, the GI50 [4] was > 100 µM (inactive), the GI50 [5] was 2.9 µM (inactive) and the GI50 [6] was > 100 µM (inactive). For the same molecule, the GI50 [7] was 5.58 µM (inactive), the GI50 [8] was 7.91 µM (inactive) and the GI50 [9] was 3.97 µM (inactive). The GI50 [10] was 32.7 µM (inactive), the GI50 [11] was 13.4 µM (inactive) and the GI50 [12] was 1.67 µM (inactive). For the same molecule, the GI50 [13] was 0.0681 µM (active), the GI50 [14] was > 100 µM (inactive) and the GI50 [15] was 24.2 µM (inactive). For the same molecule, the GI50 [16] was 1.64 µM (inactive), the GI50 [17] was > 100 µM (inactive) and the GI50 [18] was 3.18 µM (inactive). For the same molecule, the GI50 [19] was 4.86 µM (inactive), the GI50 [20] was 9.59 µM (inactive) and the GI50 [21] was 1.07 µM (active). The GI50 [22] was 4.02 µM (inactive), the GI50 [23] was > 100 µM (inactive) and the GI50 [24] was 39 µM (inactive). The GI50 [25] was 5.18 µM (inactive), the GI50 [26] was greater than 100 µM and the GI50 [27] was 2.49 µM (inactive). For the same molecule, the GI50 [28] was 2.56 µM (inactive), the GI50 [29] was 4.02 µM (inactive) and the GI50 [30] was 4.93 µM (inactive). For the same molecule, the GI50 [31] was 84.9 µM (inactive), the GI50 [32] was 0.867 µM (active) and the GI50 [33] was 1.4 µM (inactive). For the same molecule, the GI50 [34] was 1.44 µM (inactive), the GI50 [35] was 4.13 µM (inactive) and the GI50 [36] was 1.65 µM (inactive). The GI50 [37] was 4.03 µM (inactive), the GI50 [38] was > 100 µM (inactive) and the GI50 [39] was > 100 µM (inactive). For the same molecule, the GI50 [40] was 41.6 µM (inactive), the GI50 [41] was > 100 µM (inactive) and the GI50 [42] was 29.9 µM (inactive). The GI50 [43] was 6.04 µM (inactive), the GI50 [44] was > 100 µM (inactive) and the GI50 [45] was > 100 µM (inactive). The GI50 [46] was 17.7 µM (inactive), the GI50 [47] was 6.35 µM (inactive) and the GI50 [48] was > 100 µM (inactive). The GI50 [49] was 8.26 µM (inactive), the GI50 [50] was 11.3 µM (inactive) and the GI50 [51] was 5.86 µM (inactive). For the same molecule, the GI50 [52] was > 100 µM (inactive), the GI50 [53] was 4.17 µM (inactive) and the GI50 [54] was 71.8 µM (inactive). The GI50 [55] was > 100 µM (inactive), the GI50 [56] was 4.39 µM (inactive) and the GI50 [57] was 7.71 µM (inactive). For the same molecule, the GI50 [58] was > 100 µM (inactive).
With O=C1CC(c2ccc[nH]2)=NN1c1ccccc1 the GI50 [1] was > 100 µM (inactive), the GI50 [2] was > 100 µM (inactive) and the GI50 [4] was > 100 µM (inactive). For the same molecule, the GI50 [5] was > 100 µM (inactive), the GI50 [6] was > 100 µM (inactive) and the GI50 [7] was > 100 µM (inactive). The GI50 [8] was > 100 µM (inactive), the GI50 [9] was > 100 µM (inactive) and the GI50 [11] was > 100 µM (inactive). The GI50 [12] was > 100 µM (inactive), the GI50 [13] was > 100 µM (inactive) and the GI50 [14] was > 100 µM (inactive). The GI50 [15] was > 100 µM (inactive), the GI50 [16] was > 100 µM (inactive) and the GI50 [17] was > 100 µM (inactive). For the same molecule, the GI50 [18] was > 100 µM (inactive), the GI50 [19] was > 100 µM (inactive) and the GI50 [20] was > 100 µM (inactive). The GI50 [21] was > 100 µM (inactive), the GI50 [22] was > 100 µM (inactive) and the GI50 [23] was > 100 µM (inactive). For the same molecule, the GI50 [24] was > 100 µM (inactive), the GI50 [25] was > 100 µM (inactive) and the GI50 [26] was greater than 100 µM. For the same molecule, the GI50 [28] was > 100 µM (inactive), the GI50 [29] was 27.8 µM (inactive) and the GI50 [30] was > 100 µM (inactive). For the same molecule, the GI50 [31] was > 100 µM (inactive), the GI50 [32] was 88.5 µM (inactive) and the GI50 [33] was > 100 µM (inactive). The GI50 [34] was > 100 µM (inactive), the GI50 [35] was > 100 µM (inactive) and the GI50 [36] was > 100 µM (inactive). For the same molecule, the GI50 [59] was > 100 µM (inactive), the GI50 [37] was > 100 µM (inactive) and the GI50 [39] was > 100 µM (inactive). The GI50 [41] was > 100 µM (inactive), the GI50 [42] was > 100 µM (inactive) and the GI50 [43] was > 100 µM (inactive). For the same molecule, the GI50 [44] was > 100 µM (inactive), the GI50 [45] was > 100 µM (inactive) and the GI50 [46] was > 100 µM (inactive). The GI50 [47] was > 100 µM (inactive), the GI50 [48] was > 100 µM (inactive) and the GI50 [49] was > 100 µM (inactive). For the same molecule, the GI50 [50] was > 100 µM (inactive), the GI50 [51] was > 100 µM (inactive) and the GI50 [52] was > 100 µM (inactive). For the same molecule, the GI50 [53] was > 100 µM (inactive), the GI50 [54] was > 100 µM (inactive) and the GI50 [55] was > 100 µM (inactive). For the same molecule, the GI50 [56] was 73.5 µM (inactive), the GI50 [57] was > 100 µM (inactive) and the GI50 [58] was > 100 µM (inactive).
For O=C1/C(=C/c2ccc(Cl)cc2)N=C(c2ccccc2)N1c1ccc(S(=O)(=O)Nc2nccs2)cc1, the GI50 [1] was 17.4 µM (inactive), the GI50 [2] was 33.5 µM (inactive) and the GI50 [4] was 43.6 µM (inactive). For the same molecule, the GI50 [5] was 52.1 µM (inactive), the GI50 [6] was 23.1 µM (inactive) and the GI50 [7] was 21.7 µM (inactive). The GI50 [8] was 62.5 µM (inactive), the GI50 [10] was 26.1 µM (inactive) and the GI50 [11] was 18.7 µM (inactive). For the same molecule, the GI50 [12] was 26 µM (inactive), the GI50 [14] was 52.4 µM (inactive) and the GI50 [15] was 39.5 µM (inactive). For the same molecule, the GI50 [16] was 60.5 µM (inactive), the GI50 [17] was 40.7 µM (inactive) and the GI50 [18] was 88.3 µM (inactive). For the same molecule, the GI50 [19] was 39.8 µM (inactive), the GI50 [20] was 31.5 µM (inactive) and the GI50 [21] was 23.6 µM (inactive). The GI50 [22] was 31.6 µM (inactive), the GI50 [23] was 62.2 µM (inactive) and the GI50 [24] was 32.7 µM (inactive). The GI50 [25] was 30.9 µM (inactive), the GI50 [26] was 37.5 µM and the GI50 [27] was 64.4 µM (inactive). For the same molecule, the GI50 [28] was 23.6 µM (inactive), the GI50 [29] was 33.2 µM (inactive) and the GI50 [30] was 36.2 µM (inactive). The GI50 [31] was 50.8 µM (inactive), the GI50 [32] was 27 µM (inactive) and the GI50 [33] was 18.9 µM (inactive). The GI50 [34] was 30.5 µM (inactive), the GI50 [35] was 33.4 µM (inactive) and the GI50 [36] was 28.9 µM (inactive). For the same molecule, the GI50 [37] was 46 µM (inactive), the GI50 [38] was 18.9 µM (inactive) and the GI50 [39] was 52.2 µM (inactive). The GI50 [40] was 32.7 µM (inactive), the GI50 [41] was > 100 µM (inactive) and the GI50 [42] was 47.5 µM (inactive). The GI50 [43] was 64 µM (inactive), the GI50 [44] was 70.5 µM (inactive) and the GI50 [45] was 16 µM (inactive). For the same molecule, the GI50 [46] was > 100 µM (inactive), the GI50 [47] was 31.7 µM (inactive) and the GI50 [48] was 30.4 µM (inactive). For the same molecule, the GI50 [49] was 56.5 µM (inactive), the GI50 [50] was 30.5 µM (inactive) and the GI50 [51] was 50.8 µM (inactive). For the same molecule, the GI50 [52] was 20.6 µM (inactive), the GI50 [53] was 24.8 µM (inactive) and the GI50 [54] was > 100 µM (inactive). The GI50 [55] was 57.1 µM (inactive), the GI50 [56] was 33 µM (inactive) and the GI50 [57] was > 100 µM (inactive). The GI50 [58] was 21.9 µM (inactive).
